Values of other authors in US20250127175A1, “ANTIMICROBIAL POLYMER COMPOSITIONS, ANTIMICROBIAL POLYMER ARTICLES, AND METHODS OF MAKING THE SAME” (CORNING INCORPORATED, priority 2021, published 2025).

Settings: water-soluble defined as minimum of 20 grams in 100 milliliters of water at 25° C.

CCCCn1cc[n+](C)c1.F[P-](F)(F)(F)(F)F [1-butyl-3-methylimidazolium hexafluorophosphate]
water solubility (in words): water insoluble
